Test results taken from ChEMBL document CHEMBL1909046, “DrugMatrix in vitro pharmacology data”.

Tests used:
[1] = target: cGMP-specific 3',5'-cyclic phosphodiesterase (Homo sapiens, UniProt O76074); assay: DRUGMATRIX: Phosphodiesterase PDE5 enzyme inhibition (substrate: [3H]cGMP + cGMP); format: tissue-based; details: platelet; Not Active = under 50% inhibition at 10 µM
[2] = target: 5-hydroxytryptamine receptor 1B (Rattus norvegicus, UniProt P28564); format: cell membranes, Wistar, Cerebral cortex, Membrane; note: in other assays of this panel Not Active means under 50% inhibition at 10 µM
5-hydroxytryptamine receptor 1B, sequence (P28564 whole entry): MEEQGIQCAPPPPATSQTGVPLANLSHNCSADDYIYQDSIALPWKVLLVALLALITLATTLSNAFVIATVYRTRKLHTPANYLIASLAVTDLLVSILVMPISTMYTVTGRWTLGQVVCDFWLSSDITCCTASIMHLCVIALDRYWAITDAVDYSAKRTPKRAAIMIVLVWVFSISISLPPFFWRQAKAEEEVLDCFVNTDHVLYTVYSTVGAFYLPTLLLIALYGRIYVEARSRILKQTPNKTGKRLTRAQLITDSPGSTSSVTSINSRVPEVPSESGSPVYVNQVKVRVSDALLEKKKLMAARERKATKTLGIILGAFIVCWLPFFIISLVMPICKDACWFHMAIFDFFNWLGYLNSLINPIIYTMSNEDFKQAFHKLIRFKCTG

[3] = target: T1, 5-hydroxytryptamine receptor 1A (Rattus norvegicus, UniProt P19327); format: cell membranes, CHO-K1, Membrane; note: in other assays of this panel Not Active means under 50% inhibition at 10 µM
T1 sequence (P19327 whole entry): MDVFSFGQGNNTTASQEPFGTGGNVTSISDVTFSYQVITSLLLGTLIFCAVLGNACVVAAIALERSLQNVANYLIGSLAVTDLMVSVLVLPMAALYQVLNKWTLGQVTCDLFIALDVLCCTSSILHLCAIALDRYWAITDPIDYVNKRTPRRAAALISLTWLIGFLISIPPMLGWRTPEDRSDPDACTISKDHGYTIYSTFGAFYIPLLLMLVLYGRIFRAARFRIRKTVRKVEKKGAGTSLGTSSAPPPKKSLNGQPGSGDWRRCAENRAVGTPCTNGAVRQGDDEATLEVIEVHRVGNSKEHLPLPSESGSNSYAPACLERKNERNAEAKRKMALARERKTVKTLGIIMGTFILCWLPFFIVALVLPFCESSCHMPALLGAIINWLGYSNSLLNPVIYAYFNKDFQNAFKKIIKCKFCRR

[4] = DRUGMATRIX: Leukotriene, BLT (LTB4) radioligand binding (ligand: [3H]LTB4); format: cell membranes, Membrane; details: u-937, Not Active = under 50% inhibition at 10 µM
[5] = target: T2, Vasoactive intestinal polypeptide receptor 1 (Homo sapiens, UniProt P32241); format: cell membranes, Membrane; details: ht-29; note: in other assays of this panel Not Active means under 50% inhibition at 10 µM
T2 sequence (P32241 whole entry): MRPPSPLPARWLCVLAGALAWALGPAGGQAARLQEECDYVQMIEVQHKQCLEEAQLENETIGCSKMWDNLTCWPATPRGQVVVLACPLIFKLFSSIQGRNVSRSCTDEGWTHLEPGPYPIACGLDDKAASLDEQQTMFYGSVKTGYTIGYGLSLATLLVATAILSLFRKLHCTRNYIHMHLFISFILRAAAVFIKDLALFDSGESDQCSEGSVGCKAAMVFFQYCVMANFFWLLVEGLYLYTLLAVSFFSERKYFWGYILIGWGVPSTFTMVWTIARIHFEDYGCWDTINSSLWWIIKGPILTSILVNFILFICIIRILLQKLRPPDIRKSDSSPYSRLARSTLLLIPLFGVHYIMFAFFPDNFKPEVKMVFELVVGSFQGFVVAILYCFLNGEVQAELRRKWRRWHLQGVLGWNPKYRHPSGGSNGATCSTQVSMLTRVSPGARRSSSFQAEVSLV

[6] = target: Prostaglandin G/H synthase 1 (Homo sapiens, UniProt P23219); assay: biochemical; format: tissue-based, Platelet;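 note: inhibition of COX-1 enzyme activity, with arachidonic acid supplied as substrate; in other assays of this panel Not Active means under 50% inhibition at 10 µM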
Prostaglandin G/H synthase 1, sequence (P23219 whole entry): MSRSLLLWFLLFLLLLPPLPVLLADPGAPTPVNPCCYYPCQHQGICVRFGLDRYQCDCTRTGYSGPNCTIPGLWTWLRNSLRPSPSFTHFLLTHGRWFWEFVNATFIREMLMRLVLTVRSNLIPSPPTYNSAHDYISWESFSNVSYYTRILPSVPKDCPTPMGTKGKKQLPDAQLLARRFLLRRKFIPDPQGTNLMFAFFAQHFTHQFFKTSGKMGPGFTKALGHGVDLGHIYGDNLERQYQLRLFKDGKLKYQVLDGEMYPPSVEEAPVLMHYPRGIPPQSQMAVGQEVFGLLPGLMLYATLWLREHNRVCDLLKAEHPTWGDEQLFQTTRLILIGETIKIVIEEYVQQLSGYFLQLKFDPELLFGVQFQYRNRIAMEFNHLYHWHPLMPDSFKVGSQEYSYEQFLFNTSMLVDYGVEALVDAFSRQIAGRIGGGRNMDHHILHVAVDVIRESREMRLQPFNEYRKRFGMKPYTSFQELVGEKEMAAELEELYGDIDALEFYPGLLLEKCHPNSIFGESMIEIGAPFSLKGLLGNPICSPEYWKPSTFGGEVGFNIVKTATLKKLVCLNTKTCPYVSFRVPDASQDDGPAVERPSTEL

CC[C@@H](CO)NC(=O)[C@@H]1C=C2c3cccc4[nH]cc(c34)C[C@H]2N(C)C1 [METHYLERGONOVINE]
IC50 [1]: Not Active | IC50 ([2]; read-out: IC50): 15 nM | Ki ([2]; read-out: Ki): 9.26 nM | IC50 ([3]; read-out: IC50): 4.07 nM | Ki ([3]; read-out: Ki): 2.33 nM | IC50 [4]: Not Active | Ki [4]: Not Active | IC50 [5]: Not Active | IC50 ([6]; platelet): Not Active

COc1nc(C)nc(Cl)c1NC1=NCCN1 [MOXONIDINE]
IC50 [1]: Not Active | IC50 [2]: Not Active | IC50 ([3]; read-out: IC50): 702 nM | Ki ([3]; read-out: Ki): 401 nM | IC50 [4]: Not Active | Ki [4]: Not Active | IC50 [5]: Not Active | IC50 ([6]; platelet): Not Active

COc1c(C)c2c(c(O)c1C/C=C(\C)CCC(=O)O)C(=O)OC2 [MYCOPHENOLIC ACID]
IC50 [1]: Not Active | IC50 [2]: Not Active | IC50 ([3]; cho-k1): Not Active | IC50 [4]: Not Active | Ki [4]: Not Active | IC50 [5]: Not Active | IC50 ([6]; platelet): Not Active

O=c1ncn2nc(Sc3ccc(F)cc3F)ccc2c1-c1c(Cl)cccc1Cl [NEFLAMAPIMOD]
IC50 [1]: Not Active | IC50 [2]: Not Active | IC50 ([3]; cho-k1): Not Active | IC50 [4]: Not Active | Ki [4]: Not Active | IC50 [5]: Not Active | IC50 ([6]; platelet): Not Active

CO[C@H]1/C=C/O[C@@]2(C)Oc3c(C)c(O)c4c(O)c(c(/C=N/N5CCN(C)CC5)c(O)c4c3C2=O)NC(=O)/C(C)=C\C=C\[C@H](C)[C@H](O)[C@@H](C)[C@@H](O)[C@@H](C)[C@H](OC(C)=O)[C@@H]1C [RIFAMPIN]
IC50 [1]: Not Active | IC50 [2]: Not Active | IC50 ([3]; cho-k1): Not Active | IC50 [4]: Not Active | Ki [4]: Not Active | IC50 [5]: Not Active | IC50 ([6]; platelet): Not Active

Nc1nc2ccc(OC(F)(F)F)cc2s1 [RILUZOLE]
IC50 [1]: Not Active | IC50 [2]: Not Active | IC50 ([3]; cho-k1): Not Active | IC50 [4]: Not Active | Ki [4]: Not Active | IC50 [5]: Not Active | IC50 ([6]; platelet): Not Active

C=CCC1(C(C)CCC)C(=O)NC(=O)NC1=O (stereo unspecified) [SECOBARBITAL]
IC50 [1]: Not Active | IC50 [2]: Not Active | IC50 ([3]; cho-k1): Not Active | IC50 [4]: Not Active | Ki [4]: Not Active | IC50 [5]: Not Active | IC50 ([6]; platelet): Not Active

C[C@@H]1CN(c2c(F)c(N)c3c(=O)c(C(=O)O)cn(C4CC4)c3c2F)C[C@H](C)N1 [SPARFLOXACIN]
IC50 [1]: Not Active | IC50 [2]: Not Active | IC50 ([3]; cho-k1): Not Active | IC50 [4]: Not Active | Ki [4]: Not Active | IC50 [5]: Not Active | IC50 ([6]; platelet): Not Active

Cc1noc(NS(=O)(=O)c2ccc(N)cc2)c1C [SULFISOXAZOLE]
IC50 [1]: Not Active | IC50 [2]: Not Active | IC50 ([3]; cho-k1): Not Active | IC50 [4]: Not Active | Ki [4]: Not Active | IC50 [5]: Not Active | IC50 ([6]; platelet): Not Active

Nc1c2c(nc3ccccc13)CCCC2 [TACRINE]
IC50 [1]: Not Active | IC50 [2]: Not Active | IC50 ([3]; cho-k1): Not Active | IC50 [4]: Not Active | Ki [4]: Not Active | IC50 [5]: Not Active | IC50 ([6]; platelet): Not Active

CC(C)N1CCN(c2ccc(OCC3COC(Cn4cncn4)(c4ccc(Cl)cc4Cl)O3)cc2)CC1 (stereo unspecified) [TERCONAZOLE]
IC50 [1]: Not Active | IC50 ([2]; read-out: IC50): 89900 nM | Ki ([2]; read-out: Ki): 40900 nM | IC50 ([3]; cho-k1): Not Active | IC50 ([4]; read-out: IC50): 24900 nM | Ki ([4]; read-out: Ki): 6320 nM | IC50 [5]: Not Active | IC50 ([6]; platelet): Not Active

Nc1nc2nc[nH]c2c(=S)[nH]1 [THIOGUANINE]
IC50 [1]: Not Active | IC50 [2]: Not Active | IC50 ([3]; cho-k1): Not Active | IC50 [4]: Not Active | Ki [4]: Not Active | IC50 [5]: Not Active | IC50 ([6]; read-out: IC50): 601 nM

Cc1cccc(N(C)C(=S)Oc2ccc3ccccc3c2)c1 [TOLNAFTATE]
IC50 [1]: Not Active | IC50 [2]: Not Active | IC50 ([3]; cho-k1): Not Active | IC50 [4]: Not Active | Ki [4]: Not Active | IC50 [5]: Not Active | IC50 ([6]; platelet): Not Active

NC[C@H]1CC[C@H](C(=O)O)CC1 [TRANEXAMIC ACID]
IC50 [1]: Not Active | IC50 [2]: Not Active | IC50 ([3]; cho-k1): Not Active | IC50 [4]: Not Active | Ki [4]: Not Active | IC50 [5]: Not Active | IC50 ([6]; platelet): Not Active

CC1(C)O[C@@H]2C[C@H]3[C@@H]4CCC5=CC(=O)C=C[C@]5(C)[C@@]4(F)[C@@H](O)C[C@]3(C)[C@]2(C(=O)CO)O1 [TRIAMCINOLONE ACETONIDE]
IC50 [1]: Not Active | IC50 [2]: Not Active | IC50 ([3]; cho-k1): Not Active | IC50 [4]: Not Active | Ki [4]: Not Active | IC50 [5]: Not Active | IC50 ([6]; platelet): Not Active

NS(=O)(=O)c1cc2c(cc1Cl)NC(C(Cl)Cl)NS2(=O)=O (stereo unspecified) [TRICHLORMETHIAZIDE]
IC50 [1]: Not Active | IC50 [2]: Not Active | IC50 ([3]; cho-k1): Not Active | IC50 [4]: Not Active | Ki [4]: Not Active | IC50 [5]: Not Active | IC50 ([6]; platelet): Not Active

Cc1c(C)c2c(c(C)c1O)CCC(C)(COc1ccc(CC3SC(=O)NC3=O)cc1)O2 (stereo unspecified) [TROGLITAZONE]
IC50 [1]: Not Active | IC50 [2]: Not Active | IC50 ([3]; cho-k1): Not Active | IC50 [4]: Not Active | Ki [4]: Not Active | IC50 [5]: Not Active | IC50 ([6]; platelet): Not Active

N[C@@H]1[C@H]2CN(c3nc4c(cc3F)c(=O)c(C(=O)O)cn4-c3ccc(F)cc3F)C[C@@H]12 [TROVAFLOXACIN]
IC50 [1]: Not Active | IC50 [2]: Not Active | IC50 ([3]; cho-k1): Not Active | IC50 [4]: Not Active | Ki [4]: Not Active | IC50 [5]: Not Active | IC50 ([6]; platelet): Not Active

N#CC(C#N)=Cc1ccc(O)c(O)c1 [TYRPHOSTIN 23]
IC50 [1]: Not Active | IC50 [2]: Not Active | IC50 ([3]; cho-k1): Not Active | IC50 [4]: Not Active | Ki [4]: Not Active | IC50 [5]: Not Active | IC50 ([6]; platelet): Not Active

CC[C@]1(O)C[C@H]2CN(CCc3c([nH]c4ccccc34)[C@@](C(=O)OC)(c3cc4c(cc3OC)N(C=O)[C@H]3[C@@](O)(C(=O)OC)[C@H](OC(C)=O)[C@]5(CC)C=CCN6CC[C@]43[C@@H]65)C2)C1 [VINCRISTINE]
IC50 [1]: Not Active | IC50 [2]: Not Active | IC50 ([3]; cho-k1): Not Active | IC50 [4]: Not Active | Ki [4]: Not Active | IC50 [5]: Not Active | IC50 ([6]; platelet): Not Active

SODIUM NITROPRUSSIDE
IC50 [1]: Not Active | Ki [1]: Not Active | IC50 [2]: Not Active | Ki [2]: Not Active | IC50 ([3]; cho-k1): Not Active | Ki ([3]; cho-k1): Not Active | IC50 [4]: Not Active | Ki [4]: Not Active | IC50 [5]: Not Active | Ki [5]: Not Active | IC50 ([6]; platelet): Not Active | Ki ([6]; platelet): Not Active
